Measured values: patent US10344060B2 (priority 2013, dated 2019)
Read-outs that look alike come from different tables or passages of the source.

Experiments:
Experiment in all cases: cell-based
[1] = target: T1, hNav1.7 (Homo sapiens, UniProt Q15858); settings: for IC50: read-out: IC50 (μM) Nav1.7
[2] = target: hNav1.5 (Homo sapiens, UniProt Q14524); settings: IonWorks Quattro, read-out: IC50 (μM) Nav1.5
[3] = target: T2, hNav1.4 (Homo sapiens, UniProt P35499); type: cell-based; settings: for IC50: IonWorks Quattro, read-out: IC50 (μM) Nav1.4; for Nav1.4/Nav1.7: ratio of IonWorks Quattro IC50 values
[4] = target: hNav1.3 (Homo sapiens, UniProt Q9NY46); settings: IonWorks Quattro, read-out: IC50 (μM) Nav1.3
[5] = target: T1, hNav1.7; type: cell-based; settings: for Nav1.4/Nav1.7 / Nav1.5/Nav1.7: ratio of PX tonic IC50 values, Table 11
[6] = target: T2, hNav1.4; type: cell-based; settings: PX

hNav1.5, sequence (Q14524 whole entry): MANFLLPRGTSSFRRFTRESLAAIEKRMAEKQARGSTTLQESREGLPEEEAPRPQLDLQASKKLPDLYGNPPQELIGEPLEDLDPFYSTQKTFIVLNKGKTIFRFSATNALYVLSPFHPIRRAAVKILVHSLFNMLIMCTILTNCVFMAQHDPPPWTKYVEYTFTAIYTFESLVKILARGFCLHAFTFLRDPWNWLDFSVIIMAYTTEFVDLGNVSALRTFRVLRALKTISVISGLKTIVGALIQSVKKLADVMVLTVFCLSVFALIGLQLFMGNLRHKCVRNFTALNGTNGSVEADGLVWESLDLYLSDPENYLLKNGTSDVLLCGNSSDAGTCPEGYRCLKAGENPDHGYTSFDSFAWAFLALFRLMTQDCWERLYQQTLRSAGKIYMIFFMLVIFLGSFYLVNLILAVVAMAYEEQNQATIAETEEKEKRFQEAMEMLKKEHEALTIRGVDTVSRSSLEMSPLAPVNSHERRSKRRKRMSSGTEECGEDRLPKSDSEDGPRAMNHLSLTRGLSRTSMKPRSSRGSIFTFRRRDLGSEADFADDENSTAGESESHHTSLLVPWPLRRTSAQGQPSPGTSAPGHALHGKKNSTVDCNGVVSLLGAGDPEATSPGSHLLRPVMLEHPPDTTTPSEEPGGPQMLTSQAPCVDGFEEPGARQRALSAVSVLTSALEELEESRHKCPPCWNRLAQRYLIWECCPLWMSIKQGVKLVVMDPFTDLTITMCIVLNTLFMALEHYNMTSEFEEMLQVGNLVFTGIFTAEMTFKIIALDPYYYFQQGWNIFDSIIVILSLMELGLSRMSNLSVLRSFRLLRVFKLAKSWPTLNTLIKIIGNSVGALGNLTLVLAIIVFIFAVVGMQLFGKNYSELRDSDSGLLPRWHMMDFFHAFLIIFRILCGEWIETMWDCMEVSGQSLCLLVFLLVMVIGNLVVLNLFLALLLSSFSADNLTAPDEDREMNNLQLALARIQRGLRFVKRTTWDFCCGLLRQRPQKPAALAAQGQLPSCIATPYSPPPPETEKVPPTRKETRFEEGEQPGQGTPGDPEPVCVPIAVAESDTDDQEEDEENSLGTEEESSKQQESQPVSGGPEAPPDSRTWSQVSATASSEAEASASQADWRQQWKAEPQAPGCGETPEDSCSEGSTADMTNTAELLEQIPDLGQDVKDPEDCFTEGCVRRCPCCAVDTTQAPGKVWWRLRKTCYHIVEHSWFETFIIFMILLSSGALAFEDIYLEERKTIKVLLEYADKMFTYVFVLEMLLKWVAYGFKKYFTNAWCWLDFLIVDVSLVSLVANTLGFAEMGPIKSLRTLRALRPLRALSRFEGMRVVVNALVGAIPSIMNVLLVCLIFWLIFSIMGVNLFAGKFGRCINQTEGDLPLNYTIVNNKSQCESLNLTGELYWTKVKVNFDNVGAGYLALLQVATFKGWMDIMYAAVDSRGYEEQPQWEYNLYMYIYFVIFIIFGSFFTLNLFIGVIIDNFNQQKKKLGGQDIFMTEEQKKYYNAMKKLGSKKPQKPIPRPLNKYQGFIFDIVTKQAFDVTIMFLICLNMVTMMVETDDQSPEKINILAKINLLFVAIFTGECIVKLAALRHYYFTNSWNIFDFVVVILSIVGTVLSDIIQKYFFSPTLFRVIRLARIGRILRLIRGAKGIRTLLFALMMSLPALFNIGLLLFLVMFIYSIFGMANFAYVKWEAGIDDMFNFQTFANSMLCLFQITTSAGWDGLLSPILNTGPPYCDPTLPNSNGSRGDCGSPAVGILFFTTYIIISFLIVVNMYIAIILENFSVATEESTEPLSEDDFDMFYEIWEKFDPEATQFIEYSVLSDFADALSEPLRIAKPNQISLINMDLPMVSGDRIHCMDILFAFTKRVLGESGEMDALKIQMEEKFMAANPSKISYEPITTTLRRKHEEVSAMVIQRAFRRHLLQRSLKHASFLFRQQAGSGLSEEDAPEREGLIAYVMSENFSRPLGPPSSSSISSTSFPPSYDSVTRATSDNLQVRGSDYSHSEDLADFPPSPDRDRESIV
T2 sequence (P35499 whole entry): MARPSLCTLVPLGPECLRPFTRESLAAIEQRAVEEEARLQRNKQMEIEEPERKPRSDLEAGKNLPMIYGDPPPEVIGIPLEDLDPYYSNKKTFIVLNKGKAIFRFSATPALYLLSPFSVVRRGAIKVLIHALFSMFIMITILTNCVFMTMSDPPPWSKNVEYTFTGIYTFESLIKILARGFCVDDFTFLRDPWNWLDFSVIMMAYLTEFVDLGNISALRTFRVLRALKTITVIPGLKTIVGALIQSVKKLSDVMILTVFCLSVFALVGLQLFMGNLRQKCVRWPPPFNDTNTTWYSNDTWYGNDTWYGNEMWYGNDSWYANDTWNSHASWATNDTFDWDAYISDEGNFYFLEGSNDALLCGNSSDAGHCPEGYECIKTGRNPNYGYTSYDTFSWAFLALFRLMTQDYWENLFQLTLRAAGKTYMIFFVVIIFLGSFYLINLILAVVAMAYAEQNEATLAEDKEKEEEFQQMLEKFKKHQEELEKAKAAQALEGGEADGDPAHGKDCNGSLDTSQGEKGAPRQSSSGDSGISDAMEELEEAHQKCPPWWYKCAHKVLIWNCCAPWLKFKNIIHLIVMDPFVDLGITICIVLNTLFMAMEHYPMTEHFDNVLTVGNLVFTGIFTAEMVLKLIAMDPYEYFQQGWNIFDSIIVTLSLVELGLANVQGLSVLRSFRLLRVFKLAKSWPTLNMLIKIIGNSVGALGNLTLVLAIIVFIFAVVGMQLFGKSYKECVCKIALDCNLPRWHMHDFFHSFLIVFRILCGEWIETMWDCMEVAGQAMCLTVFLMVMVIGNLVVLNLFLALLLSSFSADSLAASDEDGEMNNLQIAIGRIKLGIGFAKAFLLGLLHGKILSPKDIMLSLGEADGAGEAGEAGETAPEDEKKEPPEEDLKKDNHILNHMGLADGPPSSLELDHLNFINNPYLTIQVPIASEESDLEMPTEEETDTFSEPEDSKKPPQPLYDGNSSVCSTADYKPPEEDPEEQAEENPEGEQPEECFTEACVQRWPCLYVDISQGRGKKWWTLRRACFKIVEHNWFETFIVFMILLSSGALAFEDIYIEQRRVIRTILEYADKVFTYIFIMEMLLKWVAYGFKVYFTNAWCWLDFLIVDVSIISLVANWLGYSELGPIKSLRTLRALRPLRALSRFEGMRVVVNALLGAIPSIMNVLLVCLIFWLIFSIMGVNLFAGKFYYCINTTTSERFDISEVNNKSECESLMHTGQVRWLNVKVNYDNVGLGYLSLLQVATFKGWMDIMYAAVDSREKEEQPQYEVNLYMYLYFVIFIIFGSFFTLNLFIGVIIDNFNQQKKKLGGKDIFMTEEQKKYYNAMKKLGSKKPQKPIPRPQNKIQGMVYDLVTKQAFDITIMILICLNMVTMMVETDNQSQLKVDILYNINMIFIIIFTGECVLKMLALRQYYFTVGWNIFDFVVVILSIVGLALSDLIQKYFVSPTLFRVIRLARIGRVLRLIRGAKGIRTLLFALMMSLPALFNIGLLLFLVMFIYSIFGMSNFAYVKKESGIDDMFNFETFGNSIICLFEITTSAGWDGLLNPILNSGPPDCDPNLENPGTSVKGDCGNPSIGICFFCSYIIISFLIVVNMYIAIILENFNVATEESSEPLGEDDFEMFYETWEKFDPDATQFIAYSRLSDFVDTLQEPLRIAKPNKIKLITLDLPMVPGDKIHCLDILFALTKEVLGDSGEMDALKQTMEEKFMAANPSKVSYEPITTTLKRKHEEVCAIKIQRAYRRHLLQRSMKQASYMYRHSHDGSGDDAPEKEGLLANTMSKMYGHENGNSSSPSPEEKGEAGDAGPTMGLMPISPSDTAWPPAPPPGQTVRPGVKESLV

SMILES	IC50 ([1]; IonWorks Quattro, […])	IC50 ([2]; Table 9)	IC50 ([3]; Table 9)	Nav1.4/Nav1.7 ([3]; Table 9)	IC50 ([4]; Table 9)	IC50 ([5]; read-out: PX hNav1.7 Tonic IC50)	IC50 [1]	IC50 ([2]; Table 6)	IC50 ([3]; Table 6)	Nav1.4/Nav1.7 ([3]; Table 6)	IC50 ([4]; Table 6)	Nav1.4/Nav1.7 [5]	Nav1.5/Nav1.7 [5]	Nav1.4/Nav1.7 ([1]; ratio of IonWorks Quattro IC50 values, Nav1.4 over Nav1.7)	selectivity against hNav1.4 relative to hNav1.7 [6]
CCCC[C@@H]1NC(=O)[C@H](Cc2c[nH]c3ccccc23)NC(=O)[C@H](CCCCN)NC(=O)[C@H](CCC(N)=O)NC(=O)[C@@H](NC(=O)[C@@H](N)Cc2ccc(O)cc2)CSSC[C@@H]2NC(=O)[C@@H]3CSSC[C@@H](C(=O)N[C@@H](CCCNC(=N)N)C(=O)N[C@@H](CCCCN)C(=O)N[C@H](C(=O)N[C@@H](Cc4cn(CCCOCCOCCOCCOCCOCCOCCOCCOCCOCCOCCN)nn4)C(N)=O)[C@@H](C)CC)NC(=O)[C@H](Cc4c[nH]c5ccccc45)NC(=O)[C@H](CC(C)C)NC(=O)[C@H](CCCCN)NC(=O)[C@H](CSSC[C@H](NC(=O)[C@H]([C@@H](C)O)NC(=O)[C@H](Cc4c[nH]c5ccccc45)NC1=O)C(=O)N[C@@H](CC(=O)O)C(=O)N[C@@H](CO)C(=O)N[C@@H](CCCCN)C(=O)N[C@@H](CCCNC(=N)N)C(=O)N[C@@H](C)C(=O)N3)NC(=O)[C@H](CCCNC(=N)N)NC(=O)[C@H](CC(C)C)NC(=O)CNC(=O)[C@H](CCC(=O)O)NC2=O [compound 270]	0.4 µM	> 7 µM	0.75 µM	2	3.9 µM	22 nM	–	–	–	–	–	–	–	–	–
CC[C@H](C)[C@H](NC(=O)[C@@H](NC(=O)[C@H](CCCCN)NC(=O)[C@H](CCCNC(=N)N)NC(=O)[C@@H]1CSSC[C@@H]2NC(=O)[C@H](C)NC(=O)[C@H](CCCNC(=N)N)NC(=O)[C@H](CCCCN)NC(=O)[C@H](CO)NC(=O)[C@H](CC(=O)O)NC(=O)[C@@H]3CSSC[C@H](NC(=O)[C@H](CCCNC(=N)N)NC(=O)[C@H](CC(C)C)NC(=O)CNC(=O)[C@H](CCC(=O)O)NC(=O)[C@H](CSSC[C@H](NC(=O)[C@@H](N)Cc4ccc(O)cc4)C(=O)N[C@@H](CCC(N)=O)C(=O)N[C@@H](CCCCN)C(=O)N[C@@H](Cc4c[nH]c5ccccc45)C(=O)N[C@@H](CCSC)C(=O)N[C@@H](Cc4cccc5ccccc45)C(=O)N[C@@H]([C@@H](C)O)C(=O)N3)NC2=O)C(=O)N[C@@H](CCCCN)C(=O)N[C@@H](CC(C)C)C(=O)N[C@@H](Cc2c[nH]c3ccccc23)C(=O)N1)[C@@H](C)CC)C(N)=O [compound 30]	–	–	–	–	–	–	0.013 µM	3.6 µM	0.12 µM	9	0.1 µM	2	3550	–	–
CC[C@H](C)[C@H](NC(=O)[C@@H](NC(=O)[C@H](CCCCN)NC(=O)[C@H](CCCNC(=N)N)NC(=O)[C@@H]1CSSC[C@@H]2NC(=O)[C@H](C)NC(=O)[C@H](CCCNC(=N)N)NC(=O)[C@H](CCCCN)NC(=O)[C@H](CO)NC(=O)[C@H](CC(=O)O)NC(=O)[C@@H]3CSSC[C@H](NC(=O)[C@H](CCC(=O)O)NC(=O)[C@H](CC(C)C)NC(=O)CNC(=O)[C@H](CCC(=O)O)NC(=O)[C@H](CSSC[C@H](NC(=O)[C@@H](N)Cc4ccc(O)cc4)C(=O)N[C@@H](CCC(N)=O)C(=O)N[C@@H](CCCCN)C(=O)N[C@@H](Cc4c[nH]c5ccccc45)C(=O)N[C@@H](CCSC)C(=O)N[C@@H](Cc4c[nH]c5ccccc45)C(=O)N[C@@H]([C@@H](C)O)C(=O)N3)NC2=O)C(=O)N[C@@H](CCCCN)C(=O)N[C@@H](CC(C)C)C(=O)N[C@@H](Cc2c[nH]c3ccccc23)C(=O)N1)[C@@H](C)CC)C(N)=O [compound 63]	–	–	–	–	–	–	0.073 µM	> 5 µM	4.6 µM	63	2.5 µM	179	1333	14	greater than 1000 fold
CC[C@H](C)[C@H](NC(=O)[C@@H](NC(=O)[C@H](CCCCN)NC(=O)[C@H](CCCNC(=N)N)NC(=O)[C@@H]1CSSC[C@@H]2NC(=O)[C@H](C)NC(=O)[C@H](CCCNC(=N)N)NC(=O)[C@H](CCCCN)NC(=O)[C@H](CO)NC(=O)[C@H](CC(=O)O)NC(=O)[C@@H]3CSSC[C@H](NC(=O)[C@H](C)NC(=O)[C@H](CC(C)C)NC(=O)CNC(=O)[C@H](CCC(=O)O)NC(=O)[C@H](CSSC[C@H](NC(=O)[C@@H](N)Cc4ccc(O)cc4)C(=O)N[C@@H](CCC(N)=O)C(=O)N[C@@H](CCCCN)C(=O)N[C@@H](Cc4c[nH]c5ccccc45)C(=O)N[C@@H](CCSC)C(=O)N[C@@H](Cc4c[nH]c5ccccc45)C(=O)N[C@@H]([C@@H](C)O)C(=O)N3)NC2=O)C(=O)N[C@@H](CCCCN)C(=O)N[C@@H](CC(C)C)C(=O)N[C@@H](Cc2c[nH]c3ccccc23)C(=O)N1)[C@@H](C)CC)C(N)=O [compound 17]	–	–	–	–	–	–	0.009 µM	> 5 µM	0.42 µM	46	0.26 µM	8	229	–	–
CC[C@H](C)[C@H](NC(=O)[C@@H](NC(=O)[C@H](CCCCN)NC(=O)[C@H](CCCNC(=N)N)NC(=O)[C@@H]1CSSC[C@@H]2NC(=O)[C@H](C)NC(=O)[C@H](CCCNC(=N)N)NC(=O)[C@H](CCCCN)NC(=O)[C@H](CO)NC(=O)[C@H](CC(=O)O)NC(=O)[C@@H]3CSSC[C@H](NC(=O)[C@H](CCCNC(=N)N)NC(=O)[C@H](CC(C)C)NC(=O)CNC(=O)[C@H](CCC(=O)O)NC(=O)[C@H](CSSC[C@H](NC(=O)[C@@H](N)CCC(=O)O)C(=O)N[C@@H](CCC(N)=O)C(=O)N[C@@H](CCCCN)C(=O)N[C@@H](Cc4c[nH]c5ccccc45)C(=O)N[C@@H](CCSC)C(=O)N[C@@H](Cc4c[nH]c5ccccc45)C(=O)N[C@@H]([C@@H](C)O)C(=O)N3)NC2=O)C(=O)N[C@@H](CCCCN)C(=O)N[C@@H](CC(C)C)C(=O)N[C@@H](Cc2c[nH]c3ccccc23)C(=O)N1)[C@@H](C)CC)C(N)=O [compound 49]	–	–	–	–	–	–	0.018 µM	> 5 µM	0.23 µM	13	0.16 µM	27	21467	–	–
CC[C@H](C)[C@H](NC(=O)[C@@H](NC(=O)[C@H](CCCCN)NC(=O)[C@H](CCCNC(=N)N)NC(=O)[C@@H]1CSSC[C@@H]2NC(=O)[C@H](C)NC(=O)[C@H](CCCNC(=N)N)NC(=O)[C@H](CCCCN)NC(=O)[C@H](CCCNC(=N)N)NC(=O)[C@H](CC(=O)O)NC(=O)[C@@H]3CSSC[C@H](NC(=O)[C@H](CCCNC(=N)N)NC(=O)[C@H](CC(C)C)NC(=O)CNC(=O)[C@H](CCC(=O)O)NC(=O)[C@H](CSSC[C@H](NC(=O)[C@@H](N)Cc4ccc(O)cc4)C(=O)N[C@@H](CCC(N)=O)C(=O)N[C@@H](CCCCN)C(=O)N[C@@H](Cc4c[nH]c5ccccc45)C(=O)N[C@@H](CCSC)C(=O)N[C@@H](Cc4c[nH]c5ccccc45)C(=O)N[C@@H]([C@@H](C)O)C(=O)N3)NC2=O)C(=O)N[C@@H](CCCCN)C(=O)N[C@@H](CC(C)C)C(=O)N[C@@H](Cc2c[nH]c3ccccc23)C(=O)N1)[C@@H](C)CC)C(N)=O [compound 98]	–	–	–	–	–	–	0.007 µM	0.86 µM	0.09 µM	12	0.03 µM	–	–	–	–
CC[C@H](C)[C@H](NC(=O)[C@@H](NC(=O)[C@H](CCCCN)NC(=O)[C@H](CCCNC(=N)N)NC(=O)[C@@H]1CSSC[C@@H]2NC(=O)[C@H](C)NC(=O)[C@H](CCCNC(=N)N)NC(=O)[C@H](CCCCN)NC(=O)[C@H](C)NC(=O)[C@H](CC(=O)O)NC(=O)[C@@H]3CSSC[C@H](NC(=O)[C@H](CCCNC(=N)N)NC(=O)[C@H](CC(C)C)NC(=O)CNC(=O)[C@H](CCC(=O)O)NC(=O)[C@H](CSSC[C@H](NC(=O)[C@@H](N)Cc4ccc(O)cc4)C(=O)N[C@@H](CCC(N)=O)C(=O)N[C@@H](CCCCN)C(=O)N[C@@H](Cc4c[nH]c5ccccc45)C(=O)N[C@@H](CCSC)C(=O)N[C@@H](Cc4c[nH]c5ccccc45)C(=O)N[C@@H]([C@@H](C)O)C(=O)N3)NC2=O)C(=O)N[C@@H](CCCCN)C(=O)N[C@@H](CC(C)C)C(=O)N[C@@H](Cc2c[nH]c3ccccc23)C(=O)N1)[C@@H](C)CC)C(N)=O [compound 11]	–	–	–	–	–	–	0.012 µM	3.6 µM	0.16 µM	13	0.14 µM	–	–	–	–
CCCC[C@@H]1NC(=O)[C@H](Cc2c[nH]c3ccccc23)NC(=O)[C@H](CCCCN)NC(=O)[C@H](CCC(N)=O)NC(=O)[C@@H](NC(=O)[C@@H](N)Cc2ccc(O)cc2)CSSC[C@@H]2NC(=O)[C@@H]3CSSC[C@@H](C(=O)N[C@@H](CCCNC(=N)N)C(=O)N[C@@H](CCCCN)C(=O)N[C@H](C(=O)N[C@H](C(N)=O)[C@@H](C)CC)[C@@H](C)CC)NC(=O)[C@H](Cc4c[nH]c5ccccc45)NC(=O)[C@H](CC(C)C)NC(=O)[C@H](Cc4cn(CCCOCCOCCOCCOCCOCCOCCOCCOCCOCCOCCN)nn4)NC(=O)[C@H](CSSC[C@H](NC(=O)[C@H]([C@@H](C)O)NC(=O)[C@H](Cc4c[nH]c5ccccc45)NC1=O)C(=O)N[C@@H](CC(=O)O)C(=O)N[C@@H](CO)C(=O)N[C@@H](CCCCN)C(=O)N[C@@H](CCCNC(=N)N)C(=O)N[C@@H](C)C(=O)N3)NC(=O)[C@H](CCCNC(=N)N)NC(=O)[C@H](CC(C)C)NC(=O)CNC(=O)[C@H](CCC(=O)O)NC2=O [compound 264]	> 7 µM	> 7 µM	> 7 µM	–	> 7 µM	–	–	–	–	–	–	–	–	–	–
